Measurements reported in ChEMBL document CHEMBL1156471, “Targeting host cell furin proprotein convertases as a therapeutic strategy against bacterial toxins and viral pathogens” (J Biol Chem, 2007).
Non-standard residues stand in square brackets, D forms with d. Residues, ends and D or L forms follow the SMILES beside them. Sar = CNCC(=O)O

Target: Furin (Homo sapiens, UniProt P09958)
Sequence (P09958 whole entry): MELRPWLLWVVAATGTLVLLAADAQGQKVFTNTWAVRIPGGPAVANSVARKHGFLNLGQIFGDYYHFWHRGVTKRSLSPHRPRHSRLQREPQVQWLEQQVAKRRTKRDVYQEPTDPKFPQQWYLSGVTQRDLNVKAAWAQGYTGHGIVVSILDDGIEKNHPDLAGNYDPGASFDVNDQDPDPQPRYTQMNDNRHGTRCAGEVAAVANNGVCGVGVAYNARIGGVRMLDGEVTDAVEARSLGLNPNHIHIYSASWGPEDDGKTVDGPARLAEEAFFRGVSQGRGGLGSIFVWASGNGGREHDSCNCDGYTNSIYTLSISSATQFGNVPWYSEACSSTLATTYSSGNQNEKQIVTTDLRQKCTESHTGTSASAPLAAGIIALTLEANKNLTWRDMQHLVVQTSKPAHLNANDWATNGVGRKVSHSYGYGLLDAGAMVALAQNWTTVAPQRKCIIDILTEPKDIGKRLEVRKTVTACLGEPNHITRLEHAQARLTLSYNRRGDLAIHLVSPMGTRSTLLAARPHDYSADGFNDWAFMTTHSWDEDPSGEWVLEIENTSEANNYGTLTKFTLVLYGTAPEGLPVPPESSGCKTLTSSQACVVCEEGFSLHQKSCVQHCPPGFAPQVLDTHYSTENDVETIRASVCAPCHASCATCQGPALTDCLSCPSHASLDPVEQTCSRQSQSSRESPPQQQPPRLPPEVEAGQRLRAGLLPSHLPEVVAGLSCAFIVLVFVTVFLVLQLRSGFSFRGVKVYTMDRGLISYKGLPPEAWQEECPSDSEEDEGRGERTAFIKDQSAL

| Molecule | Ki |
| --- | --- |
| C[C@H](NC(=O)[C@H](C)NC(=O)[C@H](CCC(=O)O)NC(=O)[C@H](CCCN=C(N)N)NC(=O)[C@@H]1CCCN1C(=O)[C@@H](N)[C@@H](C)O)C(=O)N[C@@H](CCCN=C(N)N)C(=O)N[C@@H](CCCCN)C(=O)N[C@@H](CCCCN)C(=O)N[C@@H](CCCN=C(N)N)C(=O)N(C)CC(=O)O (H-TPREAARKKR[Sar]-OH) | > 100 nM |
| H-TPRWRRRKKRG-OH | > 100 nM |
| H-TPRERRRAARV-OH | > 100 nM |
| C[C@@H](O)[C@H](N)C(=O)N1CCC[C@H]1C(=O)N[C@@H](CCCNC(=N)N)C(=O)NCCC(=O)N[C@@H](CCCNC(=N)N)C(=O)N[C@@H](CCCNC(=N)N)C(=O)N[C@@H](CCCNC(=N)N)C(=O)N[C@@H](CCCCN)C(=O)N[C@@H](CCCCN)C(=O)N[C@@H](CCCNC(=N)N)C(=O)NCC(=O)O | > 100 nM |
| H-GGGGGGTPRARRRKKRY-OH | 54 nM |
| H-TPQRPRRRKKRG-OH | > 100 nM |
| H-TPQRHRRRKKRG-OH | > 100 nM |
| C[C@@H](O)[C@H](N)C(=O)N1CCC[C@H]1C(=O)N[C@@H](CCCN=C(N)N)C(=O)N[C@@H](CCCNC(N)=O)C(=O)N[C@@H](CCCN=C(N)N)C(=O)N[C@@H](CCCN=C(N)N)C(=O)N[C@@H](CCCN=C(N)N)C(=O)N[C@@H](CCCCN)C(=O)N[C@@H](CCCCN)C(=O)N[C@@H](CCCN=C(N)N)C(=O)NCC(=O)O | > 100 nM |
| H-TPAAARRKKR-OH | > 100 nM |
| C[C@@H](O)[C@H](N)C(=O)N1CCC[C@H]1C(=O)N[C@@H](CCC(N)=O)C(=O)N[C@@H](CCCN=C(N)N)C(=O)N[C@H](CCCN=C(N)N)C(=O)N[C@@H](CCCN=C(N)N)C(=O)N[C@@H](CCCN=C(N)N)C(=O)N[C@@H](CCCN=C(N)N)C(=O)N[C@@H](CCCCN)C(=O)N[C@@H](CCCCN)C(=O)N[C@@H](CCCNC(=N)N)C(=O)NCC(=O)O | > 100 nM |
| H-TPRYRRRKKRG-NH2 | > 100 nM |
| H-TPRARRRKKRR-NH2 | > 100 nM |
| C[C@@H](O)[C@H](N)C(=O)N1CCC[C@H]1C(=O)N[C@@H](CCCN=C(N)N)C(=O)N[C@@H](CCCCN)C(=O)N[C@@H](CCCN=C(N)N)C(=O)N[C@@H](CCCN=C(N)N)C(=O)N[C@@H](CCCN=C(N)N)C(=O)N[C@@H](CCCCN)C(=O)N[C@@H](CCCCN)C(=O)N[C@@H](CCCN=C(N)N)C(=O)NCC(N)=O | > 100 nM |
| H-TPREARRKKRV-OH | > 100 nM |
| H-GGGGGGTPRARRRKKRF-OH | 45 nM |
| H-TPRERRRKARG-NH2 | > 100 nM |
| H-APRERRRKKR-OH | > 100 nM |
| C[C@@H](O)[C@H](N)C(=O)N1CCC[C@H]1C(=O)N[C@@H](CCCN=C(N)N)C(=O)N[C@@H](CCCCN)C(=O)N[C@@H](CCCN=C(N)N)C(=O)N[C@@H](CCCN=C(N)N)C(=O)N[C@@H](CCCN=C(N)N)C(=O)N[C@@H](CCCCN)C(=O)N[C@@H](CCCCN)C(=O)N[C@@H](CCCN=C(N)N)C(=O)NCC(=O)O | > 100 nM |
| C[C@H](NC(=O)[C@H](C)NC(=O)[C@H](CCCNC(=N)N)NC(=O)[C@H](CCCNC(=N)N)NC(=O)[C@H](CCC(=O)O)NC(=O)[C@H](CCCNC(=N)N)NC(=O)[C@@H]1CCCN1C(=O)[C@@H](N)[C@@H](C)O)C(=O)N[C@@H](CCCCN)C(=O)N[C@@H](CCCNC(=N)N)C(=O)N(C)CC(=O)O (H-TPRERRAAKR[Sar]-OH) | > 100 nM |
| H-TPRERRAKKRG-OH | > 100 nM |
| H-TARERRRKKR-OH | > 100 nM |
| C[C@H](NC(=O)[C@H](CCCCN)NC(=O)[C@H](CCCNC(=N)N)NC(=O)[C@H](CCCNC(=N)N)NC(=O)[C@H](CCCNC(=N)N)NC(=O)[C@H](CCC(=O)O)NC(=O)[C@H](CCCNC(=N)N)NC(=O)[C@@H]1CCCN1C(=O)[C@@H](N)[C@@H](C)O)C(=O)N[C@@H](C)C(=O)N(C)CC(=O)O (H-TPRERRRKAA[Sar]-OH) | > 100 nM |
| H-TPRARRRKKRN-NH2 | 45 nM |
| CSC[C@H](NC(=O)[C@H](CCCNC(=N)N)NC(=O)[C@H](CCC(N)=O)NC(=O)[C@@H]1CCCN1C(=O)[C@@H](N)[C@@H](C)O)C(=O)N[C@@H](CCCNC(=N)N)C(=O)N[C@@H](CCCNC(=N)N)C(=O)N[C@@H](CCCNC(=N)N)C(=O)N[C@@H](CCCCN)C(=O)N[C@@H](CCCCN)C(=O)N[C@@H](CCCNC(=N)N)C(=O)NCC(=O)O | > 100 nM |
